For one data set, the system named is CEM-SS cells. Description: Cell viability / cytotoxicity (MTS) in the HIV-1 assay. The settings on record: peptide 10 micrograms per ml, MTS.
The test system of the next data set is Streptococcus pneumoniae. Description: Streptococcus pneumoniae assay. Format: cell-based. The settings on record: Streptococcus pneumoniae growth; peptide 10 micrograms per ml; read visually.
The test system of data set [1] is Human A549 cells. Description: Apoptosis induction assay (Annexin-5). The settings on record: 24 hours, test peptide 10 micrograms per ml. Format: cell-based. The source says:
Human A549 cells (carcinomic human alveolar basal epithelial cells) were utilized in the experiments employing the Annexin-5 apoptosis assay. Annexin-5 is a member of a highly conserved protein family that binds acidic phospholipids in a calcium-dependent manner. […] Phosphatidylserine is translocated from the inner side of the plasma membrane to the outer layer when cells undergo death by apoptosis or cell necrosis and serves as a signal by which cell destined for death are recognized by phagocytes. Test peptide—10 micrograms per ml—were exposed for 24 hours to the A549 cells before they were analyzed for signs of apoptosis.

Data set [2] in a line: Cell viability / cytotoxicity (MTS) in the HIV-1 assay. The settings on record: human, CEM-SS cells.
For data set [3], the system named is spleen cells of Ovalbumin-immunized Balb/c mice. Description: Th1/Th2 cytokine profiling assay (Mouse Th1/Th2 Cytokine CBA Kit). The settings on record: test peptide 10 micrograms per ml; Ovalbumin restimulation, 72 hours. The format is cell-based. The source says:
The Balb/c mice (originated in 1923, it is a popular strain and is used in many different research disciplines. Also classified as an inbred from the production of 20 or more successive brother-sister matings, the Balb/c mouse is albino and small in size) were immunized on Days 1, 15, and 29 with Ovalbumin (Ovalbumin is the main protein found in egg white, commonly used to stimulate an immunological reaction in test animals) in PBS (5 micrograms/injection). On day 50, spleens of the mice were harvested (3 weeks after last boost with Ovalbumin). […] Thereafter, additional Ovalbumin was added to the cells at 10 micrograms/ml for in vitro restimulation of the cells. 72 hours later, cell supernatants were harvested and assayed using the Becton Dickinson Mouse Th1/Th2 Cytokine CBA Kit. This kit can be used to measure Interleukin-2 (IL-2), Interleukin-4 (IL-4), Interleukin-5 (IL-5), Interferon-γ (IFN-γ), and Tumor Necrosis Factor-α (TNF-α) protein levels in a single sample. The kit performance has been optimized for analysis of physiologically relevant concentrations ([…] levels) of specific cytokine proteins in tissue culture supernatants and serum samples.

Data set [4] is described as follows: Cell viability (dye uptake) in the HBV assay. The settings on record: human, HepG2-2.2.15 cells, test peptide 10 micrograms per ml. Format: cell-based.
The next data set relates to HIV-1IIIB. Description: HIV-1 antiviral assay (CPE reduction, MTS) in CEM-SS cells. The format is cell-based. The settings on record: peptide 10 micrograms per ml, 6 days post-infection.
A further data set deals with Pseudomonas aeruginosa. Description: Pseudomonas aeruginosa assay. The format is cell-based. The settings on record: Pseudomonas aeruginosa growth; peptide 10 micrograms per ml; read visually.
For data set [5], the system named is Human A549 cells. Description: Propidium iodide cell cycle assay. The format is cell-based. The settings on record: 24 hours, test peptide 10 micrograms per ml, FACS. The source says: Human A549 cells (carcinomic human alveolar basal epithelial cells) were utilized in the experiments employing the Propidium iodide cell cycle assay. The eukaryotic cell cycle is a series of events that take place in a cell leading to its replication. The regulation of the cell cycle involves steps crucial to the cell, including detecting and repairing genetic damage, and provision of various checks to prevent uncontrolled cell division. The molecular events that control the cell cycle are ordered and directional; that is, each process occurs in a sequential fashion. The cell cycle consists of four distinct phases: G1 phase, S phase, G2 phase (collectively known as interphase) and M phase. M phase is itself composed of two tightly coupled processes: mitosis, in which the cell's chromosomes are divided between the two daughter cells, and cytokinesis, in which the cell's cytoplasm divides forming distinct cells. Activation of each phase is dependent on the proper progression and completion of the previous one. Cells that have temporarily or reversibly stopped dividing are said to have entered a state of quiescence called Go phase. The relatively brief M phase consists of nuclear division and cytoplasmic division. The first phase within interphase, from the end of the previous M phase till the beginning of DNA synthesis is called G1 (G indicating gap or growth). During this phase the biosynthetic activities of the cell resume at a high rate. This phase is marked by synthesis of various enzymes that are required in S phase, mainly those needed for DNA replication. The ensuing S phase starts when DNA synthesis commences; when it is complete, all of the chromosomes have been replicated. The cell then enters the G2 phase, which lasts until the cell enters mitosis. Significant protein synthesis occurs during this phase, mainly involving the production of microtubules, which are required during the process of mitosis. […]
Propidium iodide is an intercalating agent and a fluorescent molecule that can be used to stain DNA. […] After incubation for 40 min at 37° C., cells were analyzed in the FACS.

In data set [6] the test system is Human Peripheral Blood Mononuclear Cells (PBMC). Description: B cell proliferation assay (SAC plus Interleukin-2, 3H-thymidine). Format: cell-based. The settings on record: test peptide 10 micrograms per ml. The method, then: Human Peripheral Blood Mononuclear Cells (PBMC) were obtained from normal human donors. The B cell proliferation was induced by stimulation of the cells with the B cell mitogen Staphylococcus aureus Cowans I (SAC) plus Interleukin-2, either in the absence (positive proliferation control), or in the presence of test peptide—10 micrograms per ml—to examine their effects on the B cell response. 10^5/well PBMC were plated in 96-well microtiter plates and assayed in duplicate with the peptide. Cell cultures were incubated at 37° C. for 3 days in a 5% CO2 incubator and were thereafter pulsed with 1 microCi/well ^3H-thymidine for additional 12 hours of culture. At the end of incubation time, the plates were harvested and the cells counted by liquid scintillation for the incorporation of ^3H-thymidine as a measure of B cell proliferation.

Data set [7] relates to Human A549 cells. Description: Apoptosis prevention assay (Annexin-5, C2 ceramide). The format is cell-based. The settings on record: A549 cells pretreated 30 min, test peptide 10 micrograms per ml. The source says:
Human A549 cells (carcinomic human alveolar basal epithelial cells) were utilized in the experiments employing the Annexin-5 apoptosis assay. Annexin-5 is a member of a highly conserved protein family that binds acidic phospholipids in a calcium-dependent manner. […] Phosphatidylserine is translocated from the inner side of the plasma membrane to the outer layer when cells undergo death by apoptosis or cell necrosis and serves as a signal by which cell destined for death are recognized by phagocytes. A549 cells were pretreated for 30 min with test peptide—10 micrograms per ml—followed by the exposure to C2 ceramide. Ceramide mediates cell apoptosis through the activation of the mitogen activating protein kinase (MAPK) and the stress activated kinase (JNK/SAPK). C2 ceramide is a synthetic, membrane soluble analog of ceramide.

Another data set relates to HCMV strain AD169. Description: HCMV plaque reduction assay in MRC-5 cells. The settings on record: HCMV AD169 in MRC-5 cells; peptide 10 micrograms per ml; 7-10 days. The format is cell-based. The source says: (§1) Ganciclovir was used as positive control.
Data set [8] deals with Human Peripheral Blood Mononuclear Cells (PBMC). Description: T cell proliferation assay (PHA, 3H-thymidine). Format: cell-based. The settings on record: test peptide 10 micrograms per ml. How it is done: Human Peripheral Blood Mononuclear Cells (PBMC) were obtained from normal human donors. The T cell proliferation was induced by stimulation of the cells with the T cell mitogen phytohemagglutinin (PHA), either in the absence (positive proliferation control), or in the presence of test peptide—10 micrograms per ml—to examine their effects on the T cell proliferating response. 10^5/well PBMC were plated in 96-well microtiter plates and assayed in duplicate with the peptide. Cell cultures were incubated at 37° C. for 3 days in a 5% CO2 incubator and were thereafter pulsed with 1 microCi/well ^3H-thymidine for additional 12 hours of culture. At the end of incubation time, the plates were harvested and the cells counted by liquid scintillation for the incorporation of ^3H-thymidine as a measure of T cell proliferation.

For data set [9], the system named is hepatitis B virus (HBV) ayw strain. Description: HBV assay: secreted HBV DNA by real-time TaqMan PCR in HepG2-2.2.15 cells. Format: cell-based. The settings on record: test peptide 10 micrograms per ml; six days; HBV DNA in supernatant. The source says:
HepG2-2.2.15 is a stable cell line containing the hepatitis B virus (HBV) ayw strain genome (ATCC Cat. No. CRL-11997). Antiviral compounds blocking any late step of viral replication such as transcription, translation, pregenome encapsidation, reverse transcription, particle assembly and release can be identified and characterized using this cell line. In this assay, an active compound will reduce the production of secreted HBV from cells, measured by utilizing real time quantitative PCR (TaqMan) assay to directly and accurately measure HBV DNA copies.
HepG2-2.2.15 cells were plated in 96-well microtiter plates. After 16-24 hours the confluent monolayer of HepG2-2.2.15 cells was washed and the medium was replaced with complete medium containing test peptide—10 micrograms per ml—in duplicate. […] Six days following the initial administration of the peptide, the cell culture supernatants was collected, treated with pronase and DNAse and then used in a real-time quantitative TaqMan PCR assay. The PCR-amplified HBV DNA was detected in real-time by monitoring increases in fluorescence signals that result from the exonucleolytic degradation of a quenched fluorescence probe molecule that hybridizes to the amplified HBV DNA. […] Antiviral activity was calculated from the reduction in HBV DNA levels (% virus control). […]
For orientation: In qPCR the cycle at which signal appears reflects the starting amount.

The subject of data set [10] is macrophages differentiated from Human PBMC. Description: TNF alpha production assay (LPS-stimulated macrophages, ELISA). The settings on record: test peptide 10 micrograms per ml, lipopolysaccharide 200 ng/ml, overnight. The format is cell-based. The method, then: Human Peripheral Blood Mononuclear Cells (PBMC) were obtained from normal human donors. The macrophages were prepared by adherence of PBMC to the plastic wells of the plates. […] Not stimulated macrophages served as negative background control. After overnight incubation, supernatants from the control and LPS-stimulated cultures were harvested and assayed for TNF alpha production employing a TNF alpha specific ELISA.
(ELISA stands for enzyme-linked immunosorbent assay.)

In a further data set the test system is HUVEC. Description: Endothelial tube formation assay. The format is cell-based, Human. The settings on record: 20 hours, test peptide 10 micrograms per ml. The source says:
Positive control was vehicle only.

Another data set concerns MRSA. Description: Methicillin Resistant Staphylococcus Aureus (MRSA) assay. Format: cell-based. The settings on record: MRSA growth; peptide 10 micrograms per ml; read visually.
A short description of data set [11]: Cytotoxicity testing (CellTiter 96) in MRC-5 cells. The format is cell-based. The settings on record: human, MRC-5 cells (human embryonal lung fibroblasts), 6 days incubation, read-out: % Cell viability.
Excerpt: as §1

Data set [12] has as its system Primary Human endothelial cells (HUVEC). Description: Endothelial cell migration assay. Format: cell-based. The settings on record: 22 hours, test peptide 10 micrograms per ml.

Residues, ends and D or L forms follow the SMILES beside them.

Take `Cc1cn([C@H]2C[C@H](N=[N+]=[N-])[C@@H](CO)O2)c(=O)[nH]c1=O` [AZT, reference compound]: the “% Cell viability” value in the data set with CEM-SS cells stood at 97%.

As to `CC(C)[C@H](NC(=O)[C@H](CC(=O)O)NC(=O)[C@H](CCCCN)NC(=O)[C@@H](N)CCCN=C(N)N)C(=O)N[C@@H](Cc1ccc(O)cc1)C(=O)O` [Thymopentin, Arg-Lys-Asp-Val-Tyr-OH] (H-RKDVY-OH), the % inhibition (usually the share of the control response that was lost under treatment) in the data set with Streptococcus pneumoniae is 0.0%. Moreover, the “% of induction” value in the data set on Human A549 cells [1] turned out to be 0.6%. In addition, the viability (commonly the share of living cells, or the viability signal relative to a control) at 10 micrograms per ml in data set [2] was 100%. For the same compound, in data set [3], the “IFNγ spleen cells; TH1 response (% of control)” value is 62.0 % of control, the “IL-2 spleen cells (% of control)” value is 122.2 % of control, the “IL-4 spleen cells; TH2 response (% of control)” value is recorded as 170.6 % of control and the “IL-5 spleen cells; TH2 response (% of control)” value was 73.8 % of control. Also, in data set [3], the “TNF-a spleen cells; TH1 response (% of control)” value is 109.6 % of control. Besides, the viability at 144 h, 10 micrograms per ml in [4] was 100%. The “% CPE reduction in HIV-1 infected CEM-SS cells” value in the data set with HIV-1IIIB worked out at 0.0%. Also, in the data set with Pseudomonas aeruginosa, the “% inhibition” value amounted to 0.0%. Also, in the data set on Human A549 cells [5], the “Cell cycle analysis G0/G1” value was determined as 54.6, the “Cell cycle analysis G2/M” value worked out at 10.7 and the “Cell cycle analysis S” value is 34.8. Moreover, the “% of SAC/IL2 induced control” value in data set [6] is recorded as 94.4%. Also, the “% prevention of ceramide induced apoptosis” value in the data set with Human A549 cells [7] is 0.0%. Moreover, in the data set on HCMV strain AD169, the “% plaque reduction” value came to 1.4%. In addition, in data set [8], the “% of PHA induced control” value was 89.1%. Moreover, the “% inhibition of HBV replication in HEP G2 cells” value in data set [9] was 6.2%. In addition, in [10], the “% of LPS induction” value is 108.9%. In addition, in the data set with HUVEC, the “% inhibition of tube formation” value came out at 31%. Further, the “% inhibition” value in the data set with MRSA came out at 0.0%. Besides, the viability at 144 h in data set [11] is 100%. Besides, in [12], the “% inhibition of migration” value came to 7%.
